# Test results published in US20070179112A1, “POLYMERIC NUCLEOSIDE PRODRUGS” (Reliable Biopharmaceutical, Inc., priority 2000, published 2007).
# Tests used:
# snake phosphodiesterase = experiment: Cleavage of oligo 6 by snake phosphodiesterase (Boehringer Mannheim), monitored by CGE; format: in vitro ADME, crotalus durissus; conditions: 0.5 μl enzyme in water (total volume 25 μl)
# Protocol: Examples 13-22 describe cleavage of the Oligos 1-7. All cleavage experiments were performed at room temperature. The concentrations of the nucleases were reduced to slow down the rates of cleavage for the homoploymers. See S. Agrawal, in Delivery Strategies for Antisense Oligonucleotide Therapeutics, 275, 462-473, Ed. S. Akhtar, CAC Press, 1995. The Capillary Gel Electrophoresis equipment used for the studies were the Beckmman PAC/E 2200 system with Beckman Coulter E-CAP DNA capillary (#477477, […], 65 cm [27 cm effective length] loaded with Beckman Coulter E-CAP ssDNA 100-R gel and run using the Tris-Borate-Urea buffer prepared according to Beckman procedures. The CGE running conditions were as follows. The injection was done for 2 seconds at 10 kV followed by electro-osmotic flow with buffer for 30-60 min as needed at 10 kV. The cleavage reactions were monitored in most cases after 1, 2, 4, 5, 7, 10, 12, 15, 17 and 20 hrs. Some reactions were monitored after 5, 10 minutes and others after 72 and 100 hrs. The SVPDE is obtained from two different species of snakes, crotalus adamanteus and crotalus durissus. It has been observed that there is no variation in the cleavage experiments as a result of this change. […]
# [1] = test system: Snake Venom PhosphoDiEsterase, SVPDE (Phosphodiesterase I Type II)
substance,measurement,setting,value
"[dC-pO] 14-dC-OH [Oligo 6, reference compound]",cleavage/degradation observed by CGE,snake phosphodiesterase; after 30 minutes,a series of shorter oligomers due to partial cleavage was observed
same,cleavage/degradation observed by CGE,snake phosphodiesterase; after 2 hours,no full length oligonucleotide was observed
same,digestion,[1],more than 90%
"polycylidilic acid [Oligo 7, reference compound]",digestion,[1],more than 90%
(cytarabine-pO)15-dC [Oligo 1],cleavage/degradation observed by CGE,[1],minor cleavage
same,oligonucleotide degraded to monomers,[1],~20%
same,oligonucleotide degraded to oligomers of smaller lengths,[1],~50%
same,ratio of araCMP to dCMP reached as the cleavage progressed,[1],13
same,"ratio of araCMP to dCMP, starting value as the cleavage progressed",[1],3
[2′O-methylcytarabine-pO] 15-dC [Oligo 5],oligonucleotide degraded,[1],more than 80%
([cytarabine-pO]3-[2′O-methylcytidine-pO]2)3 [Oligo 2],full length oligo cleaved (estimated),[1],more than 50%
same,ratio of 2′O-MeCMP to dCMP reached as the cleavage progressed,[1],5
same,ratio of araCMP to dCMP reached as the cleavage progressed,[1],6
